From patent US12065396B2, “Lipids for use in lipid nanoparticle formulations” (ACUITAS THERAPEUTICS, INC., priority 2017, dated 2024)

Columns and labels:
[1] = tested on: luciferase expression in the liver; experiment: Luciferase mRNA in vivo evaluation using lipid nanoparticle compositions; set-up: species or system mice; details: for Liver Luc (ng luc/g liver), *dosed at 1.0 mg/kg: 1.0 mg mRNA/kg (footnote *); for Liver Luc (ng luc/g liver), *dosed at 1.0 mg/kg / Liver Luc @ 0.5 mg/kg (ng luc/g liver): tail vein injection, liver 4 hours after administration; for Liver Luc @ 0.5 mg/kg (ng luc/g liver): 0.5 mg mRNA/kg; for Relative activity in the luciferase assay relative to MC3: liver luciferase expression 4 hours after tail vein injection, 47.5/10/40.8/1.7 cationic lipid/DSPC/cholesterol/PEG-DMA
Description: A lipid of structure (I), DSPC, cholesterol and PEG-lipid were solubilized in ethanol at a molar ratio of 50:10:38.5:1.5 or 47.5:10:40.8:1.7. Lipid nanoparticles (LNP) were prepared at a total lipid to mRNA weight ratio of approximately 10:1 to 30:1. Briefly, the mRNA was diluted to 0.2 mg/mL in 10 to 50 mM citrate buffer, pH 4. Syringe pumps were used to mix the ethanolic lipid solution with the mRNA aqueous solution at a ratio of about 1:5 to 1:3 (vol/vol) with total flow rates above 15 mL/min. The ethanol was then removed and the external buffer replaced with PBS by dialysis. Finally, the lipid nanoparticles were filtered through a 0.2 μm pore sterile filter.
Studies were performed in 6-8 week old female C57BL/6 mice (Charles River) 8-10 week old CD-1 (Harlan) mice (Charles River) according to guidelines established by an institutional animal were committee (ACC) and the Canadian Council on Animal Cwere (CCAC). Varying doses of mRNA-lipid nanoparticle were systemically administered by tail vein injection and animals euthanized at a specific time point (e.g., 4 hours) post-administration. Liver and spleen were collected in pre-weighed tubes, weights determined, immediately snap frozen in liquid nitrogen and stored at −80° C. until processing for analysis.
For liver, approximately 50 mg was dissected for analyses in a 2 mL FastPrep tubes (MP Biomedicals, Solon Ohio). ¼″ ceramic sphere (MP Biomedicals) was added to each tube and 500 μL of Glo Lysis Buffer—GLB (Promega, Madison Wis.) equilibrated to room temperature was added to liver tissue. Liver tissues were homogenized with the FastPrep24 instrument (MP Biomedicals) at 2×6.0 m/s for 15 seconds. Homogenate was incubated at room temperature for 5 minutes prior to a 1:4 dilution in GLB and assessed using SteadyGlo Luciferase assay system (Promega). Specifically, 50 μL of diluted twassue homogenate was reacted with 50 μL of SteadyGlo substrate, shaken for 10 seconds followed by 5 minute incubation and then quantitated using a CentroXS^3 LB 960 luminometer (Berthold Technologies, Germany). The amount of protein assayed was determined by using the BCA protein assay kit (Pierce, Rockford, Ill.). Relative luminescence units (RLU) were then normalized to total g protein assayed. To convert RLU to ng luciferase a standard curve was generated with QuantiLum Recombinant Luciferase (Promega).
The FLuc mRNA (L-6107 or L-7602) from Trilink Biotechnologies will express a luciferase protein, originally isolated from the firefly, Photinus pyralwas. FLuc was commonly used in mammalian cell culture to measure both gene expression and cell viability. It emits bioluminescence in the presence of the substrate, luciferin. This capped and polyadenylated mRNA was fully substituted with 5-methylcytidine and pseudouridine.
Compounds of structure (I) were formulated using the following molar ratio: 47.5% cationic lipid/10% dwastearoylphosphatidylcholine (DSPC)/40.8% Cholesterol/1.7% PEG lipid (“PEG-DMA” 2-[2-(ω-methoxy(polyethyleneglycol2000)ethoxy]-N,N-ditetradecylacetamide). Relative activity was determined by measuring luciferase expression in the liver 4 hours following administration via tail vein injection as described in Example 1. […]
The cationic lipids shown in Table 2 have previously been tested with nucleic acids. For comparative purposes, these lipids were also used to formulate lipid nanoparticles containing the FLuc mRNA (L-6107) using an in line mixing method, as described in Example 1 and in PCT/US10/22614, which is hereby incorporated by reference in its entirety. Lipid nanoparticles may be formulated using the following molar ratio: 50% Cationic lipid/10% distearoylphosphatidylcholine (DSPC)/38.5% Cholesterol/1.5% PEG lipid (“PEG-DMG”, i.e., 1-(monomethoxy-polyethyleneglycol)-2,3-dimyristoylglycerol, with an average PEG molecular weight of 2000). In alternate embodiments, cationic lipid, DSPC, cholesterol and PEG-lipid are formulated at a molar ratio of approximately 47.5:10:40.8:1.7. […]

[2] = Determination of pKa of formulated lipids (TNS fluorescence assay in lipid nanoparticles); assay type: physicochemical
Text: As described elsewhere, the pKa of formulated lipids was correlated with the effectiveness of LNPs for delivery of nucleic acids (see Jayaraman et al, Angewandte Chemie, International Edition (2012), 51(34), 8529-8533; Semple et al, Nature Biotechnology 28, 172-176 (2010)). In some embodiments, the preferred range of pKa was ˜5 to ˜7. […] Lipid nanoparticles comprising compound of structure (I)/DSPC/cholesterol/PEG-lipid (50/10/38.5/1.5 or 47.5:10:40.8:1.7 mol %) in PBS at a concentration of 0.4 mM total lipid were prepared using the in-line process as described in Example 1. TNS was prepared as a 100 μM stock solution in distilled water. Vesicles were diluted to 24 μM lipid in 2 mL of buffered solutions containing 10 mM HEPES, 10 mM MES, 10 mM ammonium acetate, and 130 mM NaCl, where the pH ranged from 2.5 to 11. An aliquot of the TNS solution was added to give a final concentration of […] and following vortex mixing fluorescence intensity was measured at room temperature in a SLM Aminco Series 2 Luminescence Spectrophotometer using excitation and emission wavelengths of 321 nm and 445 nm. A sigmoidal best fit analysis was applied to the fluorescence data and the pKa was measured as the pH giving rise to half-maximal fluorescence intensity.

[3] = TNS fluorescence, pH giving half-maximal fluorescence intensity, values in text

| Structure (SMILES) | Liver Luc (ng luc/g liver), *dosed at 1.0 mg/kg [1] | pKa ([2]; Table 3, TNS assay) | Liver Luc @ 0.5 mg/kg (ng luc/g liver) [1] | pKa [2, 3] | Relative activity in the luciferase assay relative to MC3 [1] |
| --- | --- | --- | --- | --- | --- |
| CCCCCCCCCN(CCCCC(=O)N(C)CCO)C(CCCCCCCCC(=O)OCC(CCCC)CCCCCC)CCCCCCCCC(=O)OCC(CCCC)CCCCCC (stereo not drawn) [Compound 7] | 33 ± 18* ng luc/g liver | 5.83 |  |  |  |
| CCCCCCC(CCCC)COC(=O)CCCCCCCCC(CCCCCCCCC(=O)OCC(CCCC)CCCCCC)N(CC)CCCO (stereo not drawn) [Compound 13] |  | 6.03 | 514 ± 297 ng luc/g liver |  |  |
| CCCCCCCCCN(CCCN(C)C(C)=O)C(CCCCCCCCC(=O)OCC(CCCC)CCCCCC)CCCCCCCCC(=O)OCC(CCCC)CCCCCC (stereo not drawn) [Compound 1] |  |  |  | 4.69 |  |
| CCCCCCCCC(CCCCCC)COC(=O)CCCCCC(CCCCCC(=O)OCC(CCCCCC)CCCCCCCC)N(CC)CCCCO (stereo not drawn) [Compound 15] |  | 6.12 | 345 ± 141 ng luc/g liver |  |  |
| CCCCCCC(CCCC)COC(=O)CCCCCCCCC(CCCCCCCCC(=O)OCC(CCCC)CCCCCC)NCCCO (stereo not drawn) [Compound 11] |  |  |  | 8.04 |  |
| CCCCCCC(CCCC)COC(=O)CCCCCCCCC(CCCCCCCCC(=O)OCC(CCCC)CCCCCC)N(CC)CCCCO (stereo not drawn) [Compound 14] |  | 6.19 | 238 ± 70 ng luc/g liver |  |  |
| CCCCCCCCCN(CCCO)C(CCCCCCCCC(=O)OCC(CCCC)CCCCCC)CCCCCCCCC(=O)OCC(CCCC)CCCCCC (stereo not drawn) [Compound 12] |  |  |  | 4.84 |  |
| CCCCCCCCC(=O)N(CCCCN(C)C)C(CCCCCCCCC(=O)OCC(CCCC)CCCCCC)CCCCCCCCC(=O)OCC(CCCC)CCCCCC (stereo not drawn) [Compound 5] | 1422 ± 372* ng luc/g liver | 6.69 |  | 6.69 | 6.4 |
| CCCCCCCCCN(CCCCC(=O)N(C)C)C(CCCCCCCCC(=O)OCC(CC)CCCC)CCCCCCCCC(=O)OCC(CC)CCCC (stereo not drawn) [Compound 2] |  |  |  | 4.74 |  |
| CCCCCCC(CCCC)C(=O)OCCCCCCCCCC(CCCCCCCCCOC(=O)C(CCCC)CCCCCC)N(C)CCCO (stereo not drawn) [Compound 19] |  | 6.31 | 216 ± 85 ng luc/g liver |  |  |
| CCCCCCCCCN(CCCCC(=O)NCCO)C(CCCCCCCCC(=O)OCC(CCCC)CCCCCC)CCCCCCCCC(=O)OCC(CCCC)CCCCCC (stereo not drawn) [Compound 6] | 318 ± 222* ng luc/g liver | 6.1 |  |  |  |
| CCCCCCC(CCCC)COC(=O)CCCCCCCCC(CCCCCCCCC(=O)OCC(CCCC)CCCCCC)NCCCCC(=O)OCc1ccccc1 (stereo not drawn) [Compound 8] | 550 ± 164* ng luc/g liver | 6.09 |  |  |  |
| CCCCCCC(CCCC)COC(=O)CCCCCCCCC(CCCCCCCCC(=O)OCC(CCCC)CCCCCC)N(C)CCCCO (stereo not drawn) [Compound 16] |  | 6.43 | 2004 ± 582 ng luc/g liver |  |  |
| CCCCCCC(CCCC)COC(=O)CCCCCCCCC(CCCCCCCCC(=O)OCC(CCCC)CCCCCC)N(CCCCN(C)C)C(=O)C(CC)CCCC (stereo not drawn) [Compound 4] | 1213 ± 702* ng luc/g liver | 6.37 |  | 6.49 |  |
| CCCCC(CC)COC(=O)CCCCCCCCC(CCCCCCCCC(=O)OCC(CC)CCCC)NCCCCC(=O)OCc1ccccc1 (stereo not drawn) [Compound 3] | 1370 ± 674* ng luc/g liver | 6.38 |  | 6.53 | 3.68 |
| CCCCCCCCC(CCCCCC)COC(=O)CCCCCC(CCCCCC(=O)OCC(CCCCCC)CCCCCCCC)N(C)CCCO (stereo not drawn) [Compound 17] |  | 6.39 | 405 ± 227 ng luc/g liver |  |  |
| CCCCCCCCC(CCCCCC)COC(=O)CCCCCC(CCCCCC(=O)OCC(CCCCCC)CCCCCCCC)N(C)CCO (stereo not drawn) [Compound 20] |  | 6.25 | 92 ± 48 ng luc/g liver |  |  |
| CCCCCCCCC(CCCCCC)COC(=O)CCCCCC(CCCCCC(=O)OCC(CCCCCC)CCCCCCCC)N(C)CCCCO (stereo not drawn) [Compound 18] |  | 6.45 | 1506 ± 429 ng luc/g liver |  |  |
| CCCCCCC(CCCC)COC(=O)CCCCCCCCC(CCCCCCCCC(=O)OCC(CCCC)CCCCCC)N(C)CCCO (stereo not drawn) [Compound 9] | 7628 ± 3298* ng luc/g liver | 6.29 |  |  |  |
